Results on one molecule are retold here after patent publication US20230301991A1, “COMPOUNDS FOR THE TREATMENT OF VIRAL INFECTIONS” (priority 2020, published 2023).

For series [1], the system named is SARS-CoV-1. The series is classed as cell-based.
The test system of series [2] is MERS. The format is cell-based.
The test system of series [3] is Calu-3.
In series [4] the test system is SARS-CoV-2. The format is cell-based.

Structures are written as SMILES.

For the molecule `CNCc1ccc(-c2cc(-c3nc(-c4ccc(S(=O)(=O)C(C)C)cc4)cnc3N)on2)cc1` [Compound 1, 3-[3-(4-Methylaminomethyl-phenyl)-isoxazol-5-yl]-5-[4-(propane-2-sulfonyl)-phenyl]-pyrazin-2-ylamine], the “inhibition of virus replication” value in series [1], in series [2] and in series [4] was “dose dependent inhibition” each time. Moreover, the cell viability result in series [3] is “remains nearly unaffected”. Also, in series [4], the “inhibition in cells infected by SARS-CoV-2 compared with remdesivir” value is reported as “comparable with that of the antiviral reference substance remdesivir”.
